Molecules are shown by their SMILES. Bounds are passed on as bounds.

The target in assay [1] is T1, Delta-type opioid receptor (Rattus norvegicus, UniProt P33533). The assay can be described thus: Binding affinity to delta-opioid receptor of rat brain using [3H]DADLE as radioligand.
The target in assay [2] is T2, Kappa-type opioid receptor (Cavia porcellus, UniProt P41144). The assay can be described thus: Binding affinity to opioid receptor kappa 1 of guinea pig brain, using [3H]U-69593 as radioligand.
Assay [3] has as its target T3, Mu-type opioid receptor (Rattus norvegicus, UniProt P33535). The assay can be described thus: Binding affinity to mu-opioid receptor of rat brain using [3H]DAMGO as radioligand.
Assay [4] in a line: Inhibition of stimulation of [35S]GTP-gamma-S, binding produced by the selective agonist (SNC-80, delta-receptor), in guinea pig caudate membranes. On the technique in general: GTPγS is a poorly hydrolysed GTP analogue; its binding reports G protein activation.
In assay [5] the target is T2, Kappa-type opioid receptor. The assay can be described thus: Inhibition of stimulation of [35S]GTP-gamma-S, binding produced by the selective agonist (U69593, kappa-receptor), in guinea pig caudate membranes.
In assay [6] the target is T3, Mu-type opioid receptor. The experiment in a line: Binding affinity to mu-opioid receptor of rat brain using [3H]DAMGO as radioligand.
Assay [7] concerns the target Mu-type opioid receptor (Cavia porcellus, UniProt P97266). The assay can be described thus: Inhibition of stimulation of [35S]GTP-gamma-S, binding produced by the selective agonist (DAMGO, mu-receptor), in guinea pig caudate membranes. Type of assay: functional, cell membranes.
In assay [8] the target is T1, Delta-type opioid receptor. The assay can be described thus: Binding affinity to delta-opioid receptor of rat brain using [3H]DADLE as radioligand.
For assay [9], the target named is T3, Mu-type opioid receptor. The assay can be described thus: Antagonist activity on agonist (DAMGO) stimulated [35S]GTP-gamma-S, binding in cloned mu opioid receptors. Format: functional.

T1 sequence (P33533 whole entry): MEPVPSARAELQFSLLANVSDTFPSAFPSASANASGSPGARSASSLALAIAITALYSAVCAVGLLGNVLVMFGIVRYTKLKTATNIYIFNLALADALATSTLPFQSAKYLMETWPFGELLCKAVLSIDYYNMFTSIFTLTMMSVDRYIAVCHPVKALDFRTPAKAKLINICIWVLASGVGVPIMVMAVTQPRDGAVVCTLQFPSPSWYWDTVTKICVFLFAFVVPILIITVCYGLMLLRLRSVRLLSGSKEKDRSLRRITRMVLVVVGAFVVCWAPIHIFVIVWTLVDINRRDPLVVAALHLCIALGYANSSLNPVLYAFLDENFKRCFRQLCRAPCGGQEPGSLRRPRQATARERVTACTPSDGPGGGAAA
T3 sequence (P33535 whole entry): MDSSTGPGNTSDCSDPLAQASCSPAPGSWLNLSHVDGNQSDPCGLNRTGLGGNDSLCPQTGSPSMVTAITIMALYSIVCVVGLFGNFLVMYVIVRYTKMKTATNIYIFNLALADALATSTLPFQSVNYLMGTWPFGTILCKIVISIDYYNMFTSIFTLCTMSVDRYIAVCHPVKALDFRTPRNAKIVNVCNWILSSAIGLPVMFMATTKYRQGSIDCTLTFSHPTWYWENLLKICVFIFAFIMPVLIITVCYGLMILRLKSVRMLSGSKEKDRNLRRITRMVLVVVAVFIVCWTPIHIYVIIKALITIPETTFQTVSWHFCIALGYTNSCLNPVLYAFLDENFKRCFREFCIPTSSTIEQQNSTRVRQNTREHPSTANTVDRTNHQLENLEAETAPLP
T2 sequence (P41144 whole entry): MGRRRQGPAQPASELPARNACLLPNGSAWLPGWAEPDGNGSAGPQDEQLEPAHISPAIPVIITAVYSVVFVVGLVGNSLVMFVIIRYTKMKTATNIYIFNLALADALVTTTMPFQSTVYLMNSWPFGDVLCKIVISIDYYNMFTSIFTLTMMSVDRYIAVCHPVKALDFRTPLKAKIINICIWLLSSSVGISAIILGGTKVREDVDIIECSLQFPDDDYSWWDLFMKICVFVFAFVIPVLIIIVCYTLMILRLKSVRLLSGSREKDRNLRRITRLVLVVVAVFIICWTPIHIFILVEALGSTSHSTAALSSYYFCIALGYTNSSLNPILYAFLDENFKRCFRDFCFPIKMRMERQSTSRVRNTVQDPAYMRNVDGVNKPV
Mu-type opioid receptor (Cavia porcellus, UniProt P97266), sequence (P97266 whole entry): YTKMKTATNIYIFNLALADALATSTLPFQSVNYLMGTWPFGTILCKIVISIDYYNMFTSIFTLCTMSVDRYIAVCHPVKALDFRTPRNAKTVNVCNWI

In the case of `CC(C)[C@@H](CN1CC[C@@](C)(c2cccc(O)c2)[C@@H](C)C1)NC(=O)CCc1ccc(O)cc1`, the inhibition constant Ki (commonly the equilibrium dissociation constant of an inhibitor or competing ligand from its target) was above 3400 nM in assay [1], 3.84 nM in assay [2], 171 nM at Mu-type opioid receptor [3] and 450 nM in assay [4].

Consider `CC(C)[C@@H](CN1CC[C@@](C)(c2cccc(O)c2)[C@@H](C)C1)NC(=O)C1Cc2ccc(O)cc2CN1` (stereo partly specified), for which the Ki in [5] came to 0.02 nM; on Mu-type opioid receptor [6] it was 3.73 nM; at Mu-type opioid receptor [7] it was 2.16 nM; in assay [8], 301 nM; at Mu-type opioid receptor [9], 3.42 nM.

In the case of `Oc1ccc2c3c1O[C@H]1c4[nH]c5c(c4C[C@@]4(O)[C@@H](C2)N(CC2CC2)CC[C@]314)C[C@@]1(O)[C@H]2Cc3ccc(O)c4c3[C@@]1(CCN2CC1CC1)[C@H]5O4` [NORBINALTORPHIMINE], the Ki turned out to be 86 nM in [1] and 109 nM in assay [2].

These data come from ChEMBL document CHEMBL1134559 (J Med Chem, 2001).
